The numbers were not newly measured in publication PMC6311893, “Computational prediction of plasma protein binding of cyclic peptides from small molecule experimental data using sparse modeling techniques” (BMC Bioinformatics, 2018), which cites them from elsewhere.

Positions of bridges follow the written chain, without caps; N, C: chain ends. Non-standard residues stand in square brackets, D forms with d. Residues, ends and D or L forms follow the SMILES beside them. *: point of attachment. Octanoyl(6-Me) = CCC(C)CCCCC(=O)*; Dab = NCC[CH](N)C(=O)O

One series concerns plasma protein. As to conditions: cited from earlier work.
Regarding `O=C(O)[C@H]1O[C@@H](Oc2cc3oc(-c4ccc(O)cc4)cc(=O)c3c(O)c2O)[C@H](O)[C@@H](O)[C@@H]1O` [scutellarin], the “PPB (fb)” value is 0.82.

Still in this series, the particulars now being: fraction bound to plasma protein; small molecule dataset, sheet 1-SM (Set Dte = test, Dtr = training); ref Ingle et al.; cited from earlier work.
As for `CNC[C@H](O)c1cccc(O)c1` [phenylephrine], the “PPB (fb)” value is recorded as 0.51.

With `O=c1[nH]c2ccccc2n1C1CCN(CCCC(c2ccc(F)cc2)c2ccc(F)cc2)CC1` [pimozide], the “PPB (fb)” value is recorded as 0.95.

As for `CC(N/C(=N\C#N)Nc1ccncc1)C(C)(C)C` (centres unmarked) [pinacidil], the “PPB (fb)” value is on record as 0.4.

For `CN1CCC(=C2c3ccccc3CCc3sccc32)CC1` [pizotyline], the “PPB (fb)” value is 0.91.

On to `CC(=O)[C@H]1CC[C@H]2[C@@H]3CCC4=CC(=O)CC[C@]4(C)[C@H]3CC[C@]12C` [progesterone], for which the “PPB (fb)” value is 0.97.

Consider `CNCCCC1c2ccccc2C=Cc2ccccc21` [protriptyline], for which the “PPB (fb)” value is reported as 0.92.

In the case of `Cn1c(=O)c2c(ncn2CCCNCC(O)c2cc(O)cc(O)c2)n(C)c1=O` (centres unmarked) [reproterol], the “PPB (fb)” value is on record as 0.5.

On to `CC[C@H]1OC(=O)[C@H](C)[C@@H](O[C@H]2C[C@@](C)(OC)[C@@H](O)[C@H](C)O2)[C@H](C)[C@@H](O[C@@H]2O[C@H](C)C[C@H](N(C)C)[C@H]2O)[C@](C)(O)C[C@@H](C)/C(=N\OCOCCOC)[C@H](C)[C@@H](O)[C@]1(C)O` [roxithromycin], for which the “PPB (fb)” value is on record as 0.78.

In the case of `CN[C@H]1CC[C@@H](c2ccc(Cl)c(Cl)c2)c2ccccc21` [sertraline], the “PPB (fb)” value is recorded as 0.98.

For `Cc1cc(C)nc(NS(=O)(=O)c2ccc(N)cc2)n1` [sulfadimidine], the “PPB (fb)” value is 0.85.

In the case of `COc1ccc(NS(=O)(=O)c2ccc(N)cc2)nn1` [sulfamethoxypyridazine], the “PPB (fb)” value is 0.75.

For `Nc1ccc(S(=O)(=O)Nc2ccnn2-c2ccccc2)cc1` [sulfaphenazole], the “PPB (fb)” value is given as 0.95.

Still in this series, the particulars now being: fraction bound to plasma protein; small molecule dataset, sheet 1-SM; ref Ingle et al.; cited from earlier work.
As for `[H]/N=C(/N)N/C(=N/[H])NCCc1ccccc1` [phenformin], the “PPB (fb)” value is recorded as 0.16.

With `O=C1c2ccccc2C(=O)C1c1ccccc1` [phenindione], the “PPB (fb)” value is 0.97.

In the case of `CN1C(=O)CC(c2ccccc2)C1=O` (centres unmarked) [phensuximide], the “PPB (fb)” value is recorded as 0.07.

With `Cc1ccc(N(CC2=NCCN2)c2cccc(O)c2)cc1` [phentolamine], the “PPB (fb)” value is listed as 0.54.

For the compound `CCCCC1C(=O)N(c2ccccc2)N(c2ccccc2)C1=O` [phenylbutazone], the “PPB (fb)” value was 0.98.

`O=C1NC(=O)C(c2ccccc2)(c2ccccc2)N1` [phenytoin]: the “PPB (fb)” value was 0.91.

Turning to `CCc1ccc(CCOc2ccc(CC3SC(=O)NC3=O)cc2)nc1` (centres unmarked) [pioglitazone], the “PPB (fb)” value is recorded as 0.99.

With `CCn1cc(C(=O)O)c(=O)c2cnc(N3CCNCC3)nc21` [pipemidic acid], the “PPB (fb)” value is 0.3.

Consider `CN1CCN(CC(=O)N2c3ccccc3C(=O)Nc3cccnc32)CC1` [pirenzepine], for which the “PPB (fb)” value is listed as 0.1.

For `CN1C(C(=O)Nc2ccccn2)=C(O)c2ccccc2S1(=O)=O` [piroxicam], the “PPB (fb)” value is recorded as 0.99.

For the compound `CC(=O)Nc1ccc(OCC(O)CNC(C)C)cc1` (centres unmarked) [practolol], the “PPB (fb)” value is 0.3.

Regarding `C[n+]1ccccc1/C=N/O` [pralidoxime chloride], the “PPB (fb)” value was 0.05.

In the case of `CCCN[C@H]1CCc2nc(N)sc2C1` [pramipexole], the “PPB (fb)” value is listed as 0.15.

As to `O=C(C1CCCCC1)N1CC(=O)N2CCc3ccccc3C2C1` (centres unmarked) [praziquantel], the “PPB (fb)” value is 0.83.

For `CC(C)NC[C@H](O)COc1ccc(O)cc1` [prenalterol], the “PPB (fb)” value is on record as 0.04.

Turning to `CC(Cc1ccccc1)NCCC(c1ccccc1)c1ccccc1` (centres unmarked) [prenylamine], the “PPB (fb)” value is 0.97.

Regarding `COc1cc(NC(C)CCCN)c2ncccc2c1` (centres unmarked) [primaquine], the “PPB (fb)” value is reported as 0.8.

As to `CCC1(c2ccccc2)C(=O)NCNC1=O` [primidone], the “PPB (fb)” value is on record as 0.2.

As for `CCN(CC)CCOC(=O)c1ccc(N)cc1` [procaine], the “PPB (fb)” value is 0.06.

On to `CCCOC(C(=O)OC1CCN(C)CC1)(c1ccccc1)c1ccccc1` [propiverine], for which the “PPB (fb)” value is 0.9.

Turning to `Cc1c(C(C)C)c(=O)n(-c2ccccc2)n1C` [propyphenazone], the “PPB (fb)” value is recorded as 0.1.

Regarding `O=C(O)c1ccc(O)c(O)c1` [protocatechuic acid], the “PPB (fb)” value was 0.21.

For the compound `Cc1ncc(CO)c(CO)c1O` [pyridoxine], the “PPB (fb)” value is 0.

As for `OCCOCCN1CCN(C2=Nc3ccccc3Sc3ccccc32)CC1` [quetiapine], the “PPB (fb)” value is 0.83.

Consider `CCOC(=O)[C@H](CCc1ccccc1)N[C@@H](C)C(=O)N1Cc2ccccc2C[C@H]1C(=O)O` [quinapril], for which the “PPB (fb)” value is 0.97.

For the compound `O=C(c1ccc(OCCN2CCCCC2)cc1)c1c(-c2ccc(O)cc2)sc2cc(O)ccc12` [raloxifene], the “PPB (fb)” value is reported as 0.97.

With `Cc1nc2ccc(CN(C)c3ccc(C(=O)N[C@@H](CCC(=O)O)C(=O)O)s3)cc2c(=O)[nH]1` [raltitrexed], the “PPB (fb)” value is recorded as 0.93.

On to `Cc1cc2nc3c(=O)[nH]c(=O)nc-3n(C[C@H](O)[C@H](O)[C@H](O)CO)c2cc1C` [riboflavin], for which the “PPB (fb)” value is listed as 0.6.

Regarding `CS(=O)(=O)c1ccc(C2=C(c3ccccc3)C(=O)OC2)cc1` [rofecoxib], the “PPB (fb)” value is recorded as 0.87.

For `O=C(O)c1ccccc1O` [salicylate], the “PPB (fb)” value was 0.85.

In the case of `OCc1cc(C(O)CNCCCCCCOCCCCc2ccccc2)ccc1O` (centres unmarked) [salmeterol], the “PPB (fb)” value is given as 0.96.

For the compound `O=C1NCCN1CCN1CCC(c2cn(-c3ccc(F)cc3)c3ccc(Cl)cc23)CC1` [sertindole], the “PPB (fb)” value is 0.99.

Turning to `CO[C@H]1C[C@@H]2CC[C@@H](C)[C@@](O)(O2)C(=O)C(=O)N2CCCC[C@H]2C(=O)O[C@H]([C@H](C)C[C@@H]2CC[C@@H](O)[C@H](OC)C2)CC(=O)[C@H](C)/C=C(\C)[C@@H](O)[C@@H](OC)C(=O)[C@H](C)C[C@H](C)/C=C/C=C/C=C/1C` [sirolimus], the “PPB (fb)” value was 0.92.

Turning to `CN[C@@H]1[C@H](O)[C@H](NC)[C@H]2O[C@@]3(O)C(=O)C[C@@H](C)O[C@H]3O[C@@H]2[C@H]1O` [spectinomycin], the “PPB (fb)” value is on record as 0.05.

Regarding `Nc1ccc(S(=O)(=O)Nc2ccc(Cl)nn2)cc1` [sulfachlorpyridazine], the “PPB (fb)” value is listed as 0.97.

Take `COc1cc(NS(=O)(=O)c2ccc(N)cc2)nc(OC)n1` [sulfadimethoxine]: the “PPB (fb)” value is 0.95.

For the compound `COc1ncnc(NS(=O)(=O)c2ccc(N)cc2)c1OC` [sulfadoxine], the “PPB (fb)” value is reported as 0.94.

On to `CCc1nnc(NS(=O)(=O)c2ccc(N)cc2)s1` [sulfaethidole], for which the “PPB (fb)” value is given as 0.97.

In the case of `[H]/N=C(/N)NS(=O)(=O)c1ccc(N)cc1` [sulfaguanidine], the “PPB (fb)” value is recorded as 0.08.

`Cc1ccnc(NS(=O)(=O)c2ccc(N)cc2)n1` [sulfamerazine]: the “PPB (fb)” value was 0.85.

Regarding `Cc1nnc(NS(=O)(=O)c2ccc(N)cc2)s1` [sulfamethizole], the “PPB (fb)” value was 0.9.

Consider `COc1nccnc1NS(=O)(=O)c1ccc(N)cc1` [sulfametopyrazine], for which the “PPB (fb)” value was 0.72.

Take `COc1cnc(NS(=O)(=O)c2ccc(N)cc2)nc1` [sulfametoxydiazine]: the “PPB (fb)” value is reported as 0.83.

For `Cc1nc(NS(=O)(=O)c2ccc(N)cc2)oc1C` [sulfamoxole], the “PPB (fb)” value is on record as 0.7.

As to `O=C(O)c1cc(/N=N/c2ccc(S(=O)(=O)Nc3ccccn3)cc2)ccc1O` [sulfasalazine], the “PPB (fb)” value is on record as 0.97.

Take `Nc1ccc(S(=O)(=O)Nc2nccs2)cc1` [sulfathiazole]: the “PPB (fb)” value is given as 0.67.

The series is the same for the next values; noted with them: human, plasma; cited from earlier work.
Turning to `CCC(C)CCCCC(=O)NC(CCN)C(=O)NC(C(=O)NC(CCN)C(=O)NC1CCNC(=O)C(C(C)O)NC(=O)C(CCN)NC(=O)C(CCN)NC(=O)C(CC(C)C)NC(=O)C(Cc2ccccc2)NC(=O)C(CCN)NC1=O)C(C)O` (centres unmarked) [polymyxin-B] ({Octanoyl(6-Me)}-[Dab]T[Dab][Dab][Dab]FL[Dab][Dab]T; lactam 4-C; configuration not given here), the “PPB (fb)” value is 0.1.

Still in this series, the particulars now being: plasma; cited from earlier work.
Regarding `CCOC(=O)C1(c2ccccc2)CCN(CCC(O)c2ccccc2)CC1` (centres unmarked) [phenoperidine], the “PPB (fb)” value is on record as 0.8.

With `CN1CC[C@]23c4c5ccc(OCCN6CCOCC6)c4O[C@H]2[C@@H](O)C=C[C@H]3[C@H]1C5` [pholcodine], the “PPB (fb)” value is 0.24.

On to `O=C1CN=C(c2ccccc2)c2cc(Cl)ccc2N1CC1CC1` [prazepam], for which the “PPB (fb)” value is recorded as 0.97.

For `Oc1cc(O)c2c(c1)O[C@H](c1ccc(O)c(O)c1)[C@H](O)[C@H]2c1c(O)cc(O)c2c1O[C@H](c1ccc(O)c(O)c1)[C@@H](O)C2` [procyanidin B1], the “PPB (fb)” value is listed as 0.73.

As to `CCCOC(=O)Cc1ccc(OCC(=O)N(CC)CC)c(OC)c1` [propanidid], the “PPB (fb)” value is 0.75.

As for `C[C@@H]1O[C@@H](O[C@@H]2C=C3CC[C@@H]4[C@H](CC[C@]5(C)[C@@H](c6ccc(=O)oc6)CC[C@]45O)[C@@]3(C)CC2)[C@H](O)[C@H](O)[C@H]1O` [proscillaridin], the “PPB (fb)” value is reported as 0.85.

Consider `CN[C@@H](C)[C@@H](O)c1ccccc1` [pseudoephedrine], for which the “PPB (fb)” value was 0.

In the case of `Fc1ccccc1C1=NCC(=S)N(CC(F)(F)F)c2ccc(Cl)cc21` [quazepam], the “PPB (fb)” value was 0.95.

Regarding `C=CCC1(C(C)CCC)C(=O)NC(=O)NC1=O` (centres unmarked) [quinalbarbitone], the “PPB (fb)” value is 0.5.

Take `CCOC(=O)[C@H](CCc1ccccc1)N[C@@H](C)C(=O)N1[C@H](C(=O)O)C[C@@H]2CCC[C@@H]21` [ramipril]: the “PPB (fb)” value was 0.61.

Consider `CCCN(CCC)CCc1cccc2c1CC(=O)N2` [ropinirole], for which the “PPB (fb)” value is given as 0.4.

On to `CCC(C)C1(CC)C(=O)NC(=O)NC1=O` (centres unmarked) [secbutabarbital], for which the “PPB (fb)” value is on record as 0.26.

Regarding `CC(C)CC(N(C)C)C1(c2ccc(Cl)cc2)CCC1` (centres unmarked) [sibutramine], the “PPB (fb)” value is given as 0.95.

As to `C[N+](C)(C)CCOC(=O)CCC(=O)OCC[N+](C)(C)C` [succinylcholine], the “PPB (fb)” value is on record as 0.3.
